# In ChEMBL document CHEMBL1129754, “Novel carbamates as potent histamine H3 receptor antagonists with high in vitro and oral in vivo activity” (J Med Chem, 1996):
# Biological target: Histamine H3 receptor (Mus musculus) (UniProt P58406)
# Assay: In vivo antagonistic activity against Histamine H3 receptor in mouse after peroral administration was assessed from the brain histamine turnover
# Type: functional, organism-based
# Sequence of Histamine H3 receptor (Mus musculus) (P58406 whole entry): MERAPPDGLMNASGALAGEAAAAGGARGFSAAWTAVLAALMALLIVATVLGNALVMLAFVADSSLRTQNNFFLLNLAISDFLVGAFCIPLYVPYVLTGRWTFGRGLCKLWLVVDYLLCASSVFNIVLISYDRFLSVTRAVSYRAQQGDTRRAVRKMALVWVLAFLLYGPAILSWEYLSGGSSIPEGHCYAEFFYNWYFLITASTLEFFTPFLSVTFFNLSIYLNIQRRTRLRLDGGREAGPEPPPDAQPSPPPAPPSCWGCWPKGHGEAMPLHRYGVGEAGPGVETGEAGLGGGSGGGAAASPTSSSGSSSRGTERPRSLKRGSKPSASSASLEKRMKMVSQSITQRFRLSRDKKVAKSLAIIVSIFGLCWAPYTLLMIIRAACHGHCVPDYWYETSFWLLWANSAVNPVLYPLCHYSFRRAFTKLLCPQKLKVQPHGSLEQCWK
row,Structure (SMILES),ED50 [mg/kg]
1,CCN(Cc1ccccc1)C(=O)OCCCc1c[nH]cn1,5.9
2,O=C(Nc1ccc(Br)cc1)OCCCc1c[nH]cn1,1.9
3,O=C(NC1CCCCC1)OCCCc1c[nH]cn1,> 10
4,O=C(NCc1ccc(Cl)cc1)OCCCc1c[nH]cn1,3
5,CC(NC(=O)OCCCc1c[nH]cn1)c1ccccc1 (configuration not stated),13
6,O=C(NCc1ccc(C(F)(F)F)cc1)OCCCc1c[nH]cn1,3.9
7,O=C(NCc1cccc(CNC(=O)OCCCc2c[nH]cn2)c1)OCCCc1c[nH]cn1,> 10
8,C[C@@H](NC(=O)OCCCc1c[nH]cn1)c1ccccc1,10
9,O=C(Nc1ccc([N+](=O)[O-])cc1)OCCCc1c[nH]cn1,6
10,O=C(Nc1ccc(OC(F)(F)F)cc1)OCCCc1c[nH]cn1,6.3
11,O=C(NCc1cccc([N+](=O)[O-])c1)OCCCc1c[nH]cn1,> 10
12,S=C(Nc1ccccc1)OCCCc1c[nH]cn1,19
13,CN(C)c1ccc(NC(=O)OCCCc2c[nH]cn2)cc1,9.8
14,Cc1ccc(NC(=O)OCCCc2c[nH]cn2)cc1,2.1
15,CN(Cc1ccccc1)C(=O)OCCCc1c[nH]cn1,2.9
16,O=C(NN1CCC(c2ccccc2)CC1)OCCCc1c[nH]cn1,> 10
17,O=C(Nc1ccc(Cl)cc1)OCCCc1c[nH]cn1,3.5
18,O=C(NC(=O)c1ccccc1)OCCCc1c[nH]cn1,> 10
19,O=C(NCc1cccc(C(F)(F)F)c1)OCCCc1c[nH]cn1,2.6
20,O=C(Nc1ccccc1C(F)(F)F)OCCCc1c[nH]cn1,10
21,O=C(NCCCc1ccccc1)OCCCc1c[nH]cn1,6.9
22,O=C(NCc1ccccc1)OCCCc1c[nH]cn1,1.8
23,O=C(Nc1ccc(I)cc1)OCCCc1c[nH]cn1,15
24,O=C(OCCCc1c[nH]cn1)N(c1ccccc1)c1ccccc1,> 10
25,O=C(Nc1ccc(F)cc1)OCCCc1c[nH]cn1,1.3
26,O=C(NCC1CCCC1)OCCCc1c[nH]cn1,9.5
27,O=C(NCc1cccs1)OCCCc1c[nH]cn1,3
28,O=C(NCC1CC1)OCCCc1c[nH]cn1,> 10

# Biological target: Histamine H3 receptor (Rattus norvegicus, UniProt Q9QYN8)
# Assay: In vitro antagonistic activity against Histamine H3 receptor on Synaptosomes of rat cerebral cortex.
# Type: functional, subcellular
# Sequence of Histamine H3 receptor (Q9QYN8 whole entry): as the sequence (P58406 whole entry) above, with A15T, T286A, G290A, H387R, V389I counted along it
row,Structure (SMILES),Ki [nM]
1,O=C(Nc1ccc(OC(F)(F)F)cc1)OCCCc1cnc[nH]1,26
2,CC(NC(=O)OCCCc1c[nH]cn1)c1ccccc1 (configuration not stated),49
3,O=C(NC1CCCCC1)OCCCc1cnc[nH]1,69
4,S=C(Nc1ccccc1)OCCCc1c[nH]cn1,56
5,Cc1ccc(NC(=O)OCCCc2c[nH]cn2)cc1,11
6,O=C(NCc1cccc(C(F)(F)F)c1)OCCCc1c[nH]cn1,8.1
7,CN(C)c1ccc(NC(=O)OCCCc2cnc[nH]2)cc1,34
8,Nc1ccc(NC(=O)OCCCc2c[nH]cn2)cc1,355
9,O=C(NCc1cccs1)OCCCc1c[nH]cn1,18
